# Assay results as given in patent US20200016159A1, “N3-CYCLICALLY SUBSTITUTED THIENOURACILS AND USE THEREOF” (Bayer Aktiengesellschaft, priority 2016, published 2020).
# Target: T1, human adenosine A2b receptor (Homo sapiens, UniProt P29275)
# T1 sequence (P29275 1-332): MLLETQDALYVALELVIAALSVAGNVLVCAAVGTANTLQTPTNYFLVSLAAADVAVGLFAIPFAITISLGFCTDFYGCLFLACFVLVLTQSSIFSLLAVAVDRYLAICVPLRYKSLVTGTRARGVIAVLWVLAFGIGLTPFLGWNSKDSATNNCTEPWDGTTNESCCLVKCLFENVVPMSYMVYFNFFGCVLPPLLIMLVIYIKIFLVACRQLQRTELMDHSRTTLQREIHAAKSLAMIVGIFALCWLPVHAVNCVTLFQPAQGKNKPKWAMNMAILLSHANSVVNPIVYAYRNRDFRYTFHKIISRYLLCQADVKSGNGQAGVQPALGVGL
# Experiment: Cellular in vitro reporter gene test for A2b receptor activity (antagonism of NECA)
# Format: cell-based
# Design: expressed in transfected cells; host or cells: CHO-K1 (Chinese hamster ovary) with CRE-luciferase reporter
# Conditions: recombinant CHO-K1 cells, CRE-luciferase reporter, co-incubation with EC50 concentration of NECA, 3 hours
# How it was run: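 Antagonism measured as block of NECA-induced, cAMP/CRE-dependent luciferase expression in recombinant A2b CHO-K1 cells. NECA used at the EC50 set in a pre-experiment on each test day; luminescence detected after 3 h. Reported as IC50, partly averaged and rounded to two significant figures.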
row,IC50 [nM],SMILES
1,14,"Cc1c(CN2CCNC2=O)sc2c1c(=O)n(C1COC1)c(=O)n2CCC(F)(F)F [Example 130, 5-Methyl-3-(oxetan-3-yl)-6-[(2-oxoimidazolidin-1-yl)methyl]-1-(3,3,3-trifluoropropyl)thieno[2,3-d]pyrimidine-2,4(1H,3H)-dione]"
2,1.6,"Cc1c(Cn2nc[nH]c2=O)sc2c1c(=O)n(C1CC1C)c(=O)n2CCOC(F)(F)F (single isomer, unassigned) [Example 278, 5-Methyl-3-(2-methylcyclopropyl)-6-[(5-oxo-4,5-dihydro-1H-1,2,4-triazol-1-yl)methyl]-1-[2-(trifluoromethoxy)ethyl]thieno[2,3-d]pyrimidine-2,4(1H,3H)-dione]"
3,22,"Cc1c(CN2CCNC2=O)sc2c1c(=O)n(C1CC1C)c(=O)n2CCC(F)(F)C(F)F (single isomer, unassigned) [Example 246, 5-Methyl-3-(2-methylcyclopropyl)-6-[(2-oxoimidazolidin-1-yl)methyl]-1-(3,3,4,4-tetrafluorobutyl)thieno[2,3-d]pyrimidine-2,4(1H,3H)-dione]"
4,400,"CCc1c(CN2CCNC2=O)sc2c1c(=O)n(C1(C)CC1)c(=O)n2CCOC [Example 219, 5-Ethyl-1-(2-methoxyethyl)-3-(1-methylcyclopropyl)-6-[(2-oxoimidazolidin-1-yl)methyl]thieno[2,3-d]pyrimidine-2,4(1H,3H)-dione]"
5,2.8,"Cc1c(CN2CCNC2=O)sc2c1c(=O)n(C1CC3(CCC3)C1)c(=O)n2CCC(F)(F)F [Example 174, 5-Methyl-6-[(2-oxoimidazolidin-1-yl)methyl]-3-(spiro[3.3]hept-2-yl)-1-(3,3,3-trifluoropropyl)thieno[2,3-d]pyrimidine-2,4(1H,3H)-dione]"
6,6.8,"Cc1c(CN2CCNC2=O)sc2c1c(=O)n([C@H]1C[C@@H]1C)c(=O)n2CC1CCC(F)(F)C1 (single isomer, unassigned) [Example 257]"
7,130,"Cc1c(Cn2nc[nH]c2=O)sc2c1c(=O)n(C1CC1)c(=O)n2CC#N [Example 23, {3-Cyclopropyl-5-methyl-2,4-dioxo-6-[(5-oxo-4,5-dihydro-1H-1,2,4-triazol-1-yl)methyl]-3,4-dihydrothieno[2,3-d]pyrimidin-1 (2H)-yl}acetonitrile]"
8,270,"Cc1c(CN2CCNC2=O)sc2c1c(=O)n(C1CC1C)c(=O)n2CC1CCOC1 (single isomer, unassigned) [Example 290, 5-Methyl-3-(2-methylcyclopropyl)-6-[(2-oxoimidazolidin-1-yl)methyl]-1-(tetrahydrofuran-3-ylmethyl)thieno[2,3-d]pyrimidine-2,4(1H,3H)-dione]"
9,9.3,"[2H]C([2H])(c1sc2c(c1C)c(=O)n(C1CC1)c(=O)n2CCOC)N1CCNC1=O [Example 30, 3-Cyclopropyl-1-(2-methoxyethyl)-5-methyl-6-[(2-oxoimidazolidin-1-yl)dideuteromethyl]thieno[2,3-d]pyrimidine-2,4(1H,3H)-dione]"
10,8.4,"Cc1c(CN2CCNC2=O)sc2c1c(=O)n(C1CC1C)c(=O)n2CCCC(F)(F)F (single isomer, unassigned) [Example 243, 5-Methyl-3-(2-methylcyclopropyl)-6-[(2-oxoimidazolidin-1-yl)methyl]-1-(4,4,4-trifluorobutyl)thieno[2,3-d]pyrimidine-2,4(1H,3H)-dione]"
11,140,"COCCn1c(=O)n(C2(C(F)(F)F)CC2)c(=O)c2c(C)c(CN3CCNC3=NC(=O)OC)sc21 [Example 87, Methyl [1-({1-(2-methoxyethyl)-5-methyl-2,4-dioxo-3-[1-(trifluoromethyl)cyclopropyl]-1,2,3,4-tetrahydrothieno[2,3-d]pyrimidin-6-yl}methyl)imidazolidin-2-ylidene]carbamate]"
12,3,"[2H]C([2H])(c1sc2c(c1C)c(=O)n(C1CC1)c(=O)n2CCC(F)(F)F)N1CCNC1=O [Example 16, 3-Cyclopropyl-5-methyl-6-[(2-oxoimidazolidin-1-yl)dideuteromethyl]-1-(3,3,3-trifluoropropyl)thieno[2,3-d]pyrimidine-2,4(1H,3H)-dione]"
